In patent US7943576B2, “Methods of using enterostatin as inhibitor of angiogenesis” (priority 2005, dated 2011):
“Also recorded” adds a separate entry of the source. Read-outs that look alike come from different tables or passages of the source.

Key:
adipose tissue = assay: in vitro human adipose tissue angiogenesis assay (fat fragments in fibrin clot); assay type: cell-based
Description: Tissue Preparation: Discarded fat from human surgery was cut into fragments approximately 1 mm thick and 2 mm in diameter. These fat fragments were placed in 96-well plates loaded with human thrombin solution (0.05 IU in 40 μL double distilled water/well). The fat fragments were placed in the prepared 96-well plates and covered with 100 μl clotting media. The clotting media consisted of fibrinogen (3 mg/ml) (Sigma Chemical Co., St. Louis, Mo.) and ε-amino caproic acid (0.5%) (Sigma Chemical Co., St. Louis, Mo.) in human placental vein angiogenesis model (HPVAM) media. […] The mixture was allowed to clot by incubation in 6% CO2, 94% air at 37° C. in a humidified incubator. After the media had gelled overnight, the fat-containing clot was supplemented with 1 mL HPVAM media containing 20% fetal bovine serum (GibcoBRL, Gaithersburg, Md.). The total volume of each well was 2 mL.
Angiogenic Evaluation: All wells were evaluated for angiogenic sprouting by examination at 40× and 200× magnification by an unbiased observer using an inverted microscope. Angiogenesis was defined by two criteria. First, the number of wells (as a percentage of the total plated) that developed new vessel growth was termed initiation. This was defined by the presence of at least three angiogenic sprouts of approximately 0.5 mm in length growing from the periphery of the fat tissue. The degree of angiogenic response was assessed using a semi-quantitative visual rating scale as described in E. A. Woltering et al., “Development of a novel in vitro human tissue-based angiogenesis assay to evaluate the effect of antiangiogenic drugs,” Ann. Surg., vol. […] The tissue was visually divided into four quadrants. Each quadrant was given a numeric score from 0-4 based on the length and density of the new vessel growth, and on the percentage of the quadrant's circumference involved with the angiogenic response. Numeric results from the four quadrants were summed and expressed as an angiogenic index (AI, 1-16). This rating scale has been validated using multiple independent observers as described in C. Hornick et al., “Inhibition of angiogenic initiation and disruption of newly established human vascular networks by juice of Morinda citrifola (Noni),” Angiogenesis, vol.

[1] = cited from earlier work; for duration of action on feeding: single injection
[2] = occurring mainly into lymphatic system; cited from earlier work
[3] = molecular target: beta subunit of ATP synthase (Homo sapiens, UniProt P06576); conditions: cited from earlier work
[4] = molecular target: T1, cholecystokinin A receptors (Homo sapiens, UniProt P32238); conditions: cited from earlier work
T1 sequence (P32238 1-428): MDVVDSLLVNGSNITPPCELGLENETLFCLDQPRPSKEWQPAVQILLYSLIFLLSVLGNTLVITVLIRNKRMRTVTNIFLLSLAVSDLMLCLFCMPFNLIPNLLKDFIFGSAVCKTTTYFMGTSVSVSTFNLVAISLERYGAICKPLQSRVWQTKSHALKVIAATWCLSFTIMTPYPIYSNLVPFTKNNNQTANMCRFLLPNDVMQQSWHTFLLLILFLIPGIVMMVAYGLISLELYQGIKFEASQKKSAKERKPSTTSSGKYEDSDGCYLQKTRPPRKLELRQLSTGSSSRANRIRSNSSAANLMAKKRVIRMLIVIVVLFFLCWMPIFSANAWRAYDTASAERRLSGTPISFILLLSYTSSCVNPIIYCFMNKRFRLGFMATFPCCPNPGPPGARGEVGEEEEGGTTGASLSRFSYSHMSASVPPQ

GT1-7 cells = assay: microarray gene analysis, GT1-7 cells; assay type: cell-based; conditions: GT1-7 cells (counted together with HepG2); 60 minutes; 0.01, 0.1 and 1.0 uM; regulated by at least 1.7×
Description: (§1) HepG2 cells (a human liver carcinoma cell line) and GT1-7 cells (a neuronal cell line) were cultured by standard procedures and incubated with varying concentrations of enterostatin for 60 minutes. At the completion of the incubation period, cells were lysed, recovered from the plates, and extracted for RNA using TRI REAGENT® (Molecular Research Center, Inc, Cincinnati, Ohio). The RNA was then purified using the RNeasy® Mini Kit (Qiagen, Valencia, Calif.). RNA quality was visually assessed using agarose gel electrophoresis and quantified by UV spectrophotometric analysis (A260 and A280 nm). All RNA had A260/A280 ratios greater than 1.75 and less than 2.10. RNA integrity was checked using an RNA 6000 nano lab chip kit (Agilent Technologies, Foster City, Calif.). […]
(§2) Slides were scanned using a GSI Lumonics ScanArray 5000 laser scanner (Perkin Elmer Life Sciences, Inc., Boston, Mass.) at a relatively low and a relatively high laser intensity and expression data was analyzed using the QuantArray V3.0 software package (Perkin Elmer Life Sciences, Inc.). […]

[5] = tested on: SK-N-MC neuroepithelioma cells; conditions: low affinity binding; cited from earlier work
umbilical veins = assay: human umbilical vein angiogenesis model; assay type: cell-based
Source text: In addition, another angiogenesis model was tried, the human umbilical vein model as described by Woltering et al. (61). This model uses discarded umbilical veins to assay the effect of various compounds on angiogenesis.

[6] = low affinity binding, brain membrane preparation; cited from earlier work
galanin receptors = conditions: cited from earlier work
[7] = molecular target: T2, Neuropeptide Y1 receptors (Homo sapiens, UniProt P25929); conditions: cited from earlier work
T2 sequence (P25929 1-384): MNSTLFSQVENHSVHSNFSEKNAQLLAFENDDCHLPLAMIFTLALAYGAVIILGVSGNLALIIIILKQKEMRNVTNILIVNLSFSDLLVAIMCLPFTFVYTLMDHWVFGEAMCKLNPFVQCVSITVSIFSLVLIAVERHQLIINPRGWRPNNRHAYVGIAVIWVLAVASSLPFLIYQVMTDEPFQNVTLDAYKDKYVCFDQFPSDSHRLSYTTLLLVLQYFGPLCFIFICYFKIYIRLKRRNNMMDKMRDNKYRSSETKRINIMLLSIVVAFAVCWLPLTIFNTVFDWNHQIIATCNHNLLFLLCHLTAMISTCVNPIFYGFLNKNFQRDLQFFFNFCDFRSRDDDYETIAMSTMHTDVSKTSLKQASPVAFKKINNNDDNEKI

[8] = humans, intravenous injection; cited from earlier work
HepG2 cells = assay: microarray gene analysis, HepG2 cells; assay type: cell-based, human; conditions: HepG2 cells (counted together with GT1-7); 60 minutes; 0.01, 0.1 and 1.0 uM; regulated by at least 1.7×
Description: as §1, §2

kappa-opioid receptors = kappa-opioid receptors (Homo sapiens, UniProt P41145); conditions: cited from earlier work
islet cells = conditions: cited from earlier work
[9] = rats adapted to three-choice macronutrient diet

beta subunit of ATP synthase, sequence (P06576 48-529): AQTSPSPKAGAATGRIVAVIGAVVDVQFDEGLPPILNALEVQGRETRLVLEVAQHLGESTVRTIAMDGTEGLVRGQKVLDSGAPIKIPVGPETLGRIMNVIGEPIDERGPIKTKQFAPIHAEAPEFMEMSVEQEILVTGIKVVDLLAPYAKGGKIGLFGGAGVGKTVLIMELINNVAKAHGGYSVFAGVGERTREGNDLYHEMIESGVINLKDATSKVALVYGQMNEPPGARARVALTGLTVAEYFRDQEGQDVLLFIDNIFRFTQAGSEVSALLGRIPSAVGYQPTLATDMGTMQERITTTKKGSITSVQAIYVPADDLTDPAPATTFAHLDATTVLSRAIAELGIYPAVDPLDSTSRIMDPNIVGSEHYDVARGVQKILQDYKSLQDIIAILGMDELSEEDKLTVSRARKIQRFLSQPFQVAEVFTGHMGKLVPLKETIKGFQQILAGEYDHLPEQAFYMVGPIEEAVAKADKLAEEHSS
kappa-opioid receptors, sequence (P41145 whole entry): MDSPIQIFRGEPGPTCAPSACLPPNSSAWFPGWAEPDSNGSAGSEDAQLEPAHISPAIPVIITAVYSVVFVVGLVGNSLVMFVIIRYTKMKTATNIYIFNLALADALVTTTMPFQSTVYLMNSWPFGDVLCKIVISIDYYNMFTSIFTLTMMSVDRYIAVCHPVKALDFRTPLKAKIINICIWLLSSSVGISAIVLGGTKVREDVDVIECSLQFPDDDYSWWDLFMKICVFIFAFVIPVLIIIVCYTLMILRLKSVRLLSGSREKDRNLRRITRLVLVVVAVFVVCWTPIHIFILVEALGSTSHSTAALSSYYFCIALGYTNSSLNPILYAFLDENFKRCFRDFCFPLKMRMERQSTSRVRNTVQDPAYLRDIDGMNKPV

APGP-ornithine [reference compound]
inhibitory effect on the angiogenic index (FIG. 4 legend) (adipose tissue): lack of an inhibitory effect
inhibition of angiogenesis (FIG. 4) (adipose tissue; concentrations from 10^−6 to 10^−9 M): none of these concentrations of the metabolite inhibited angiogenesis
food intake in rats ([1]; rat, in vivo): shown to affect food intake in rats

enterostatin (VPDPR; printed: Val-Pro-Asp-Pro-Arg) [aminoterminal pentapeptide of procolipase released when procolipase is converted into colipase]
absorption across the intestine [2]: limited and slow
binding to purified beta subunit of ATP synthase [3]: bind to this purified protein; also recorded: binds to the beta subunit of ATP synthase
binding to cholecystokinin A receptors [4]: not to bind
number of genes related to the angiogenesis pathway upregulated or downregulated (GT1-7 cells): 22 genes
Kd [5]: 40 nM
inhibition of angiogenesis (umbilical veins): effective in inhibiting angiogenesis
concentration least inhibitory of angiogenesis as measured by the angiogenic index (FIG. 3) (adipose tissue): 10^−10 M
new blood vessels (photomicrograph, FIG. 1B vs control FIG. 1A) (adipose tissue; 10^−9 M enterostatin): fewer new blood vessels than the control tissue
angiogenic response (adipose tissue; concentrations from about 10^−6 to about 10^−9 M): effectively blocked the angiogenic response
concentration giving the greatest inhibition of angiogenic index (FIG. 2) (adipose tissue; day 15, U-shaped dose response curve): 10^−9 M
effect on the angiogenic index (FIG. 2) (adipose tissue; range of 10^−8 to 10^−6 M): dose dependent inhibition
Kd [6]: 230 nM
binding to galanin receptors (galanin receptors): not to bind
binding to Neuropeptide Y1 receptors [7]: not to bind
food intake [8]: not found to reduce food intake
subjective feeling of hunger [8]: reduce the subjective feeling of hunger
daily intake of dietary fat ([1]; chronic icv administration from mini-osmotic pumps, single-choice HF or two-choice HF/LF diet): attenuated the daily intake of dietary fat
carbohydrate or protein intake [1, 9]: no effect on either carbohydrate or protein intake
intake of fat macronutrient [1, 9]: reduced intake of the fat macronutrient
duration of action on feeding ([1]; rats adapted to a six-hour feeding schedule): lasting up to six hours
duration of action on feeding ([1]; rats adapted to ad-libitum feeding): up to 24 hours
intake of HF vs LF diet ([1]; two-choice high-fat and low-fat diet paradigm): reduced only intake of the HF diet
number of genes related to the angiogenesis pathway upregulated or downregulated (HepG2 cells): 22 genes
binding to kappa-opioid receptors (kappa-opioid receptors): not to bind
insulin secretion from islets (islet cells; 10^−9 to 10^−5 M, 16.7 mM glucose, dose-dependent): inhibited insulin secretion from islets
insulin secretion from isolated pancreatic islets (islet cells; doses of 10^−10 to 10^−6M): inhibit insulin secretion

β-casomorphin1-7 [reference compound]
binding to purified beta subunit of ATP synthase [3]: bind to this purified protein
inhibitory effect on the angiogenic index (FIG. 4 legend) (adipose tissue): lack of an inhibitory effect
effect on angiogenesis (FIG. 4) (adipose tissue; concentrations of 10^−6 and 10^−7 M): no effect on angiogenesis
